Test results published in ChEMBL document CHEMBL1147160, “Bioactive constituents from the marine crinoid Himerometra magnipinna” (2007).
Active and inactive are the calls of the source. The calls are words filed in the database; no cut-off is given here.

Experiments:
Streptomyces [1] = assay: Inhibition of hyphae formation in Streptomyces 85E at 80 ug/disk after 30 hrs by HF1 assay; type: functional; conditions: for zone of inhibition at 80 µg/disc: read-out: IZ
Streptomyces [2] = assay: Inhibition of hyphae formation in Streptomyces 85E at 40 ug/disk after 30 hrs by HF1 assay; type: functional, organism-based

SMILES | zone of inhibition at 80 µg/disc (Streptomyces [1]) | Activity (Streptomyces [2]) | Activity (Streptomyces [1])
COC1=C(Br)[C@H](O)[C@@]2(C=C1Br)CC(C(=O)NCCC(O)CCNC(=O)C1=NO[C@]3(C=C(Br)C(OC)=C(Br)[C@@H]3O)C1)=NO2 | 11 mm | inactive | 
CCCc1cc(O)c2c(c1)C(C1c3cc(O)cc(O)c3C(=O)c3c(O)cc(C(O)CC)cc31)c1cc(O)cc(O)c1C2=O (stereo not given) | 11 mm | inactive | 
COC1=C(Br)[C@H](O)[C@@]2(C=C1Br)CC(C(=O)NCCCCNC(=O)C1=NO[C@]3(C=C(Br)C(OC)=C(Br)[C@@H]3O)C1)=NO2 |  |  | inactive
